According to patent publication US9180164B2, “Compounds and methods of modulating angiogenesis” (THE CLEVELAND CLINIC FOUNDATION, priority 2011, dated 2015):
Where no end group is shown, it is not given here. [ ]: non-standard residue; d: D form. Gla = N[C@@H](CC(C(=O)O)C(=O)O)C(=O)O

Legend:
αvβ3 integrin [1] = target: T1, αvβ3 integrin (Mus musculus, UniProt O54890+P43406); assay: Fibrinogen binding assay (FACS); format: cell-based; details: WT EC; 20 ng/ml VEGF or 1 mM MnCl2
T1 construct: endogenous in cells; host or cells: primary mouse lung endothelial cells
T1 sequence (O54890 26-787): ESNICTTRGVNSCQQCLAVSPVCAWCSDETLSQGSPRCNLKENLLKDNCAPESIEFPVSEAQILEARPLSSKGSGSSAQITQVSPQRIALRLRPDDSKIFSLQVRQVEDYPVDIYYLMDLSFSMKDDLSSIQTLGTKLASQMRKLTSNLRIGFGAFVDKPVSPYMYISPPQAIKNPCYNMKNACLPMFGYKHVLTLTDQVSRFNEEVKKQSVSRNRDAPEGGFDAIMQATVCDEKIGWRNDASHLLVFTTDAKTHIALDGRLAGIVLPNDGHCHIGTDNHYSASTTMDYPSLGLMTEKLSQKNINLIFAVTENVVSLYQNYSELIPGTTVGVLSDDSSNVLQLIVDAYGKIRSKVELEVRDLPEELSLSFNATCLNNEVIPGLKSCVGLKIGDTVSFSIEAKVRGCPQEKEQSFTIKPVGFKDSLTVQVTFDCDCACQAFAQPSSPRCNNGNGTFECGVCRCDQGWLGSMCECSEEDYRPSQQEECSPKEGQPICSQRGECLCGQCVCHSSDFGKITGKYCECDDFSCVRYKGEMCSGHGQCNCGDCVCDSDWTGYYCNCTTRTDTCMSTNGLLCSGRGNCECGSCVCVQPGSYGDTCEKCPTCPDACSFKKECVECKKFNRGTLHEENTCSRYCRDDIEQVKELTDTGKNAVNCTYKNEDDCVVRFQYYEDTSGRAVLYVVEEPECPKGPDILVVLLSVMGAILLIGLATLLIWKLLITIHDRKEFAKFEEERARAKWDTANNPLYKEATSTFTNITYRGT
T1 sequence (P43406 31-885 limits assumed): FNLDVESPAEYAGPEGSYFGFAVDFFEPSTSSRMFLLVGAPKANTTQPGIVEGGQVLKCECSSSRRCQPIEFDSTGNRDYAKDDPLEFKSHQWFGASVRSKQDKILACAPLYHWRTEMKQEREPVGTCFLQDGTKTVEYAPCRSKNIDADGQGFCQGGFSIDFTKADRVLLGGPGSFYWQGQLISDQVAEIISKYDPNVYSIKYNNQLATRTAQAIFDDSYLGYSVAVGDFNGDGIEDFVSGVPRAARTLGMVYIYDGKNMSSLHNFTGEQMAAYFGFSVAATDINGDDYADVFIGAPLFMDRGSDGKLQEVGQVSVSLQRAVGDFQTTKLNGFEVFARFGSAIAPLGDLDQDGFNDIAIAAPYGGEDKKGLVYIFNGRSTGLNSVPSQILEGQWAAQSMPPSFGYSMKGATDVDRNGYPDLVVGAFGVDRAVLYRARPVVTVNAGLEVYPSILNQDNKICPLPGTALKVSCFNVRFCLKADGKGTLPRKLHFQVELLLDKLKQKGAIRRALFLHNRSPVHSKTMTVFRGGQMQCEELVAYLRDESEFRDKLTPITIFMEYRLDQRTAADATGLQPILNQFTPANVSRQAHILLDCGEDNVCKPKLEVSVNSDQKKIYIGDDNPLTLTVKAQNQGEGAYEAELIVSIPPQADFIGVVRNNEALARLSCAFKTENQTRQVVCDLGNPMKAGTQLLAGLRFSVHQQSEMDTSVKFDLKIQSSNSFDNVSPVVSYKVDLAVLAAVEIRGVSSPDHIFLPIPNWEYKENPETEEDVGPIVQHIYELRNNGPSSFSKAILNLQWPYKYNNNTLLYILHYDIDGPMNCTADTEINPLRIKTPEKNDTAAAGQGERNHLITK
T1 sequence (P43406 887-1044 limits assumed): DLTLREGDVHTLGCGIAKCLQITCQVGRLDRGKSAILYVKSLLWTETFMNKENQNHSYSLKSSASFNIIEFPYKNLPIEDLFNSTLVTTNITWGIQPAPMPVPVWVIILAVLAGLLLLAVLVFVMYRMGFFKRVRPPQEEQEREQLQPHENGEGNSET
Method: (§1) To assess fibrinogen binding, semiconfluent wild type and DiYF mouse lung endothelial cells were serum starved for 4 h and further induced with 20 ng/ml VEGF-165, 20 ng/ml b-FGF or 1 mm MnC12. Fluorescein isothiocyanate (FITC)-labeled fibrinogen was added at a final concentration of 200 nM for 45 min. […] Fluorescence-activated cell sorting (FACS) was performed using a FACS Calibur (Becton Dickinson, San Jose, Calif.) and data were analyzed using CellQuest software program.

αvβ3 integrin [2] = assay: Fibrinogen binding assay (FACS); format: cell-based, mouse; details: DiYF EC; 20 ng/ml VEGF or 1 mM MnCl2
Method: as §1

αvβ3 integrin [3] = target: T1, αvβ3 integrin; assay: WOW-1 binding assay, mouse lung endothelial cells; format: cell-based; details: WT EC; 20 ng/ml VEGF or 1 mM MnCl2
Method: (§2) Wild type and DiYF mouse lung endothelial cells were serum starved for 4 h and further stimulated with 20 ng/ml VEGF-165, 20 ng/ml b-FGF or 1 mm MnC12 separately. WoW-1 Fab was added at a final concentration of […], followed by addition of Fluorescein isothiocyanate (FITC) conjugated goat anti-mouse IgG at 10 μg/ml. After 30 min cells were fixed with 3.7% formaldehyde/PBS for 15 min, washed twice with 1×PBS and FACS was performed using a FACS Calibur (Becton Dickinson, San Jose, Calif.) instrument and data were analyzed using CellQuest software program.

αvβ3 integrin [4] = assay: WOW-1 binding assay, mouse lung endothelial cells; format: cell-based; details: DiYF EC; 20 ng/ml VEGF or 1 mM MnCl2
Method: as §2

[5] = test system: human melanoma cells (WM-164); assay: Apoptosis in melanoma cells; format: cell-based; details: 100 μM
Method: To the examine the effect of beta-3 integrin cytoplasmic domain inhibitory peptides on tumor progressino we treated human melanoma cells (WM-164) with either 100 μM of control peptide or with equal amount of inhibiting peptide 07-240 (HIV-TAT-(NPLXK) (SEQ ID NO: 7)), inhibiting peptide 07-241 (HIV-TAT-(NPLDK) (SEQ ID NO: 9)), inhibiting peptide 07-243 (HIV-TAT-(NITXR) (SEQ ID NO: 8)), and inhibiting peptide 07-244 (HIV-TAT-(NITDR) (SEQ ID NO: 10)), where X is γ-carboxyglutamic acid.

WT mouse aortic rings = assay: Mouse aortic ring angiogenesis; format: cell-based; details: 50 μM, in the presence of VEGF, 1 week
Method: Thoracic aortas from WT and DiYF mice were removed under aseptic conditions and spliced into 1 mm thick rings. Thoracic aortic rings were placed between two layers of growth factor depleted Matrigel and allowed to solidify at room temperature. Matrigels were overlaid with either with DMEM or endothelial growth medium with or without VEGF (40 ng/ml). Microvessel outgrowth was visualized by phase contrast microscopy and numbers of vessels growing from each aortic ring were counted and photographed every two days using Leica phase contrast microscope.
To examine the effect of cyclic inhibiting peptides on mouse aortic ring angiogensis, thoracic aortas from WT mice were removed under aseptic conditions and spliced into 1 mm thick rings. Thoracic aortic rings were placed between two layers of growth factor depleted Matrigel and allowed to solidify at room temperature. Matrigels were administered VEGF and 50 μM control peptides or with equal amounts of inhibiting peptide 1 (RR cyclic (NPLXK) (SEQ ID NO: 39), disulfide bridge cycle), inhibiting peptide 2 (RR cyclic (NITXR) (SEQ ID NO: 40), disulfide bridge cycle), inhibiting peptide 3 (RRRKKRKRRR cyclic (NPLXK) (SEQ ID NO: 41), disulfide bridge cycle), and inhibiting peptide 4 (RRRKKRKRRR cyclic (NITXR) (SEQ ID NO: 42), disulfide bridge cycle), where X is γ-carboxyglutamic acid. Microvessel outgrowth was visualized by phase contrast microscopy and numbers of vessels growing from each aortic ring were counted and photographed every two days using Leica phase contrast microscope after 1 week.

[6] = test system: subcutaneously implanted tumors; assay: Progression of subcutaneously implanted tumors; format: in vivo, mice; details: 100 μM
Method: To the examine the effect of beta-3 integrin cytoplasmic domain inhibitory peptides on tumor progressino we subcutaneously implanted tumors in mice and then treated the mice with either 100 μM of control peptide or with equal amount of inhibiting peptide 1 (RR cyclic (NPLXK) (SEQ ID NO: 7), disulfide bridge cycle), inhibiting peptide 2 (RR cyclic (NITXR) (SEQ ID NO: 8), disulfide bridge cycle), inhibiting peptide 3 ([…] cyclic (NPLXK) (SEQ ID NO: 7), disulfide bridge cycle), inhibiting peptide 4 ([…] cyclic (NITXR) (SEQ ID NO: 8), disulfide bridge cycle), inhibiting peptide 5 (RR linear (NPLXK) (SEQ ID NO: 7)); and inhibiting peptide 6 (RR linear (NITXR) (SEQ ID NO: 8)), where X is γ-carboxyglutamic acid.

Row | Compound | apoptosis in melanoma cells compared to a control [5] | angiogenesis of the mouse aortic rings (microvessel outgrowth) (WT mouse aortic rings) | tumor progression compared to a control [6] | also measured
1 | [Cl][Mn][Cl] [MnCl2] |  |  |  | increase of fibrinogen binding (αvβ3 integrin [1]): at least 40 fold; increase of fibrinogen binding (αvβ3 integrin [2]): 17 fold; increase in WOW-1 binding (αvβ3 integrin [3]): 30 fold; increase in WOW-1 binding (αvβ3 integrin [4]): 14 fold
2 | HIV-TAT-(NITDR) (listed as Homo sapiens) [07-244] | induced apoptosis |  |  | 
3 | HIV-TAT-(NITXR) ({HIV‑TAT}-NIT[Gla]R; not fully specified; printed as HIV-TAT-(NITXR); listed as Homo sapiens) [07-243, X is γ-carboxyglutamic acid] | induced apoptosis |  |  | 
4 | HIV-TAT-(NPLDK) (listed as Homo sapiens) [07-241] | induced apoptosis |  |  | 
5 | HIV-TAT-(NPLXK) ({HIV‑TAT}-NPL[Gla]K; not fully specified; printed as HIV-TAT-(NPLXK); listed as Homo sapiens) [07-240, X is γ-carboxyglutamic acid] | induced apoptosis |  |  | 
6 | RR cyclic (NITXR) (RRNIT[Gla]R; disulfide (positions not given here); not fully specified; printed as RR cyclic (NITXR); also: cyclic, closure not given here; listed as Homo sapiens) [inhibiting peptide 2, X is γ-carboxyglutamic acid] |  | inhibited angiogenesis | substantially reduced tumor progression | 
7 | RR cyclic (NPLXK) (RRNPL[Gla]K; disulfide (positions not given here); also: NPLXK part cyclic via disulfide bridge, no Cys in given letters; listed as Homo sapiens) [inhibiting peptide 1, X is γ-carboxyglutamic acid] |  | inhibited angiogenesis | substantially reduced tumor progression | 
8 | RR linear (NITXR) (RRNIT[Gla]R; listed as Homo sapiens) [inhibiting peptide 6, X is γ-carboxyglutamic acid] |  |  | substantially reduced tumor progression | 
9 | RRRKKRKRRR cyclic (NITXR) (RRRKKRKRRRNIT[Gla]R; disulfide (positions not given here); not fully specified; also: cyclic, closure not given here; listed as Homo sapiens) [inhibiting peptide 4, X is γ-carboxyglutamic acid] |  | inhibited angiogenesis | substantially reduced tumor progression | 
10 | RRRKKRKRRR cyclic (NPLXK) (RRRKKRKRRRNPL[Gla]K; disulfide (positions not given here); not fully specified; listed as Homo sapiens) [inhibiting peptide 3, X is γ-carboxyglutamic acid] |  | inhibited angiogenesis | substantially reduced tumor progression | 
